These results are taken from ChEMBL document CHEMBL1201862, “PubChem BioAssay data set” (2004).

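Growth conditions: 96-well plates. Treatment: test compound, 48 hours, 5 concentrations. Analysis: linear interpolation between bracketing concentrations; unreached endpoints set to highest concentration. Here, GI50 denotes the concentration required for 50% inhibition of growth.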 Calls of active or inactive are those of the source. Cut-off read from the data, not from the text of the source: active = GI50 up to about 1.1 µM and inactive = higher. Where a SMILES comes first, the peptide text is derived from it. The star is where a group is joined. Cbz = O=C(OCc1ccccc1)*; Boc = CC(C)(C)OC(=O)*; tBu = CC(C)(C)*

What all share (experiment): inhibition of tumour cell growth, NCI panel, 48 h
Test [1] relates to EKVX.
Test [2] deals with U-251.
Test [3] concerns SW-620.
In test [4] the test system is SK-MEL-28.
The subject of test [5] is NCI-H460.
The subject of test [6] is HCT-116.
Test [7] concerns COLO 205.
Test [8] deals with LOX IMVI.
The test system of test [9] is UACC-62.
Test [10] deals with HT-29.
Test [11] relates to SR.
Test [12] has as its system HL-60.
In test [13] the test system is OVCAR-5.
The subject of test [14] is BT-549.
In test [15] the test system is ACHN.
In test [16] the test system is CCRF-CEM.
The subject of test [17] is OVCAR-4.
Test [18] concerns HOP-92.
Test [19] has as its system NCI-H23.
For test [20], the system named is MDA-N.

For the molecule `C/C(=C\COP(=O)(O)OP(=O)(O)O)CC/C=C(\C)CNc1ccccc1`, the GI50 in test [1], in [2], in test [3], in [4], in test [5] and in test [6] was > 50 µM (inactive) each time. Further, the GI50 in [7] is > 50 µM (inactive); in [8], > 50 µM (inactive); in test [9], > 50 µM (inactive); in test [10], > 50 µM (inactive); in test [11], 0.0893 µM (active); in test [12], 1.05 µM (active). Also, the GI50 is > 50 µM (inactive) in test [13], 9.16 µM (inactive) in test [14], > 50 µM (inactive) in [15] and 0.832 µM (active) in test [16].

For the molecule `CN(C)/C=N/c1c2ccccc2nc2ccccc12`, the GI50 is 6.64 µM (inactive) in test [17]; 9.46 µM (inactive) in [1]; 4.17 µM (inactive) in [2]; 1.99 µM (inactive) in test [4]; 3.57 µM (inactive) in test [6]; 2.48 µM (inactive) in test [7]. Further, the GI50 in test [8] is 2.44 µM (inactive); in test [9], 2.45 µM (inactive); in test [10], 3.06 µM (inactive); in [18] it was 5.4 µM (inactive); in test [19], 3.31 µM (inactive); in test [12], 3.65 µM (inactive). For the same molecule, the GI50 in test [13] was 6.52 µM (inactive); in test [14], 3.06 µM (inactive); in [15], 5.02 µM (inactive); in test [16], 4.21 µM (inactive).

On to `CCOC(=O)C1=C(OS(=O)(=O)C(F)(F)F)CCCC1`, for which the GI50 in [20], in [17], in test [1], in [2], in test [3] and in [4] was > 100 µM (inactive) each time. The GI50 in [5], in [7], in test [8], in [9], in [10] and in test [11] was > 100 µM (inactive) each time. Besides, the GI50 in test [18], in [19], in test [12], in [13], in test [15] and in [16] was > 100 µM (inactive) throughout.

For `CSc1ccccc1NC1=NCCO1`, the GI50 in test [20], in test [17], in test [1], in test [2], in [3] and in test [4] was > 100 µM (inactive) each time. For the same molecule, the GI50 in test [5], in [6], in [7], in test [8], in test [9] and in test [10] was > 100 µM (inactive) throughout. Further, the GI50 in test [11], in test [18], in [19], in test [12], in test [13] and in [15] was > 100 µM (inactive) throughout. For the same molecule, the GI50 in test [16] is > 100 µM (inactive).

In the case of `NC(N)=NCc1ccc2c(c1)OCO2`, the GI50 in [20] is > 100 µM (inactive); in test [17], > 100 µM (inactive); in test [1] it was > 100 µM (inactive); in test [2] it was > 100 µM (inactive); in test [3] it was > 100 µM (inactive); in test [4], 67.3 µM (inactive). Moreover, the GI50 is > 100 µM (inactive) in test [5]; 78.3 µM (inactive) in [6]; > 100 µM (inactive) in test [8]; > 100 µM (inactive) in test [9]; 72.9 µM (inactive) in [10]; > 100 µM (inactive) in test [11]. Also, the GI50 in [18] was 54.1 µM (inactive); in test [19] it was 61.1 µM (inactive); in [12] it was 60.3 µM (inactive); in test [13] it was > 100 µM (inactive); in test [15] it was 65.5 µM (inactive); in test [16], 94 µM (inactive).

Take `CCOc1ccc2c(c1)c(CC(=O)O)cn2C`: the GI50 in test [1], in [2], in [4], in [5], in test [6] and in test [7] was > 100 µM (inactive) throughout. Besides, the GI50 is > 100 µM (inactive) in test [8]; > 100 µM (inactive) in [9]; > 100 µM (inactive) in test [10]; > 100 µM (inactive) in test [11]; 45.6 µM (inactive) in test [18]; > 100 µM (inactive) in test [19]. Also, the GI50 in test [12], in test [14], in [15] and in test [16] was > 100 µM (inactive) throughout.

Consider `O=[N+]([O-])/C(Cl)=C(\Nc1ccccc1)C(Cl)=C(Cl)Cl`, for which the GI50 in test [20] is 36 µM (inactive); in test [17] it was 41.6 µM (inactive); in [1], 39.8 µM (inactive); in test [2], 43.1 µM (inactive); in test [4] it was 36.8 µM (inactive); in test [5] it was 39.4 µM (inactive). Further, the GI50 in [6] was 36.1 µM (inactive); in test [7], 19.5 µM (inactive); in test [8] it was 32.9 µM (inactive); in test [9], 26.2 µM (inactive); in test [10] it was 30.5 µM (inactive); in test [11], 27.4 µM (inactive). Also, the GI50 is 28.9 µM (inactive) in test [18]; 44.8 µM (inactive) in test [19]; 20.9 µM (inactive) in [12]; 40.8 µM (inactive) in test [13]; 29.2 µM (inactive) in test [15]; 12.7 µM (inactive) in [16].

`CC(OC(C)(C)C)C(NC(=O)C(CCCCNC(=O)OC(C)(C)C)NC(=O)C(Cc1c[nH]c2ccccc12)NC(=O)C(Cc1ccccc1)NC(=O)OCc1ccccc1)C(=O)NC(Cc1ccccc1)C(=O)O` (stereo not given) (Cbz-FWK(Boc)T(tBu)F-OH; configuration not given here): the GI50 was 38.5 µM (inactive) in test [20]; 91 µM (inactive) in test [17]; > 100 µM (inactive) in test [1]; 37.9 µM (inactive) in test [2]; 75.2 µM (inactive) in test [3]; 57.8 µM (inactive) in test [4]. The GI50 in test [5] is > 100 µM (inactive); in test [6] it was 36.6 µM (inactive); in test [7], 36.9 µM (inactive); in test [8], 29.4 µM (inactive); in [9], 21 µM (inactive); in [10], 33.5 µM (inactive). Further, the GI50 in test [11] was 44.4 µM (inactive); in test [18] it was > 100 µM (inactive); in [19], 61.7 µM (inactive); in [12] it was > 100 µM (inactive); in [13] it was 33.1 µM (inactive); in [15] it was 69.3 µM (inactive). The GI50 in [16] is 28.1 µM (inactive).
